# Reference: paper PMC4234457, “Primary porcine proximal tubular cells as an alternative to human primary renal cells in vitro: an initial characterization” (BMC Cell Biology, 2013)
# Structures can show the parent of a compound that is named as a salt. Where two headings read alike, the source gives them in different places.
# Tests used:
# pOat3 = conditions: cited from earlier work; for Inhibitory effect on pOat3-mediated ES transport: oocytes
# pOat1 = conditions: cited from earlier work; for Inhibition of pOat1-mediated PAH uptake: oocytes
# PKC [1] = assay: Inhibition of cellular PAH uptake in PKC; conditions: 50 μM PAH, inhibitor 1 mM, 10 min; for Reduction of PAH BBM uptake: Figure 3A
# Experimental: For transport studies, PKC were seeded (1 × 10^5 cells/cm^2) on 6-well PET filter inserts with 0.4 μm pore size. The use of filter inserts allows measurement of transport across the BLM (basolateral membrane) and the BBM (brushborder membrane) by addition of substrates to media in the lower and upper compartment, respectively. […] The cells were incubated at 37°C for the indicated times. […] Thereafter, cells were acidified with 1 M HCl and an aliquot was used for protein determination using the Bradford assay. 1 ml of medium from each compartment and of solubilized cells was placed into 10 ml scintillation cocktail and radioactivity was measured in a Beckman LS 6500 scintillation counter.
# Oat1 or Oat3 = assay: Transporter induction experiments (RT-PCR of transporter mRNA in PKC); type: cell-based, porcine
# Experimental: For transporter induction experiments, freshly isolated PKC cells were seeded (total of 2 × 10^4 cells cm^-2) on 6-well ThinCert PET tissue culture inserts in standard culture medium and medium was changed every 48 hours. […] After 48 hours of exposure, samples for RNA extraction were prepared by standard trypsin-EDTA treatment followed by washing with PBS. Resulting cell pellets were snap-frozen and stored at -80°C until use.
# Total RNA was prepared from cell pellets and minced pieces of tissue (rat kidney and porcine kidney cortex) via the phenol-chloroform method using Trizol (Invitrogen, Karlsruhe, Germany). Concentration and quality was estimated via 260/280 nm values. Representative samples were tested for RNA integrity via denaturing electrophoresis. cDNA was prepared using 1 μg total RNA, Oligo (dT)18 and M-MuLV reverse transcriptase according to manufacturer’s instructions. PCR was performed using 2 μl cDNA sample, 2 × PCR Master Mix, specific primers (Table 3). Amplification was performed with an initial denaturation step at 92°C for 3 min followed by 30 cycles of 94°C for 60 sec, 58°C for 60 sec and 72°C for 60 sec and a final extension step at 72°C for 7 min.
# OAT3 (SLC22A8) = tested on: OAT3 (SLC22A8); parameters: method as in supplement 1; conditions: Rat, cited from earlier work
# hOAT3 = conditions: cited from earlier work
# [2] = tested on: primary human proximal tubular cells; parameters: method as in PMID 16997449; conditions: cited from earlier work
# PKC [3] = assay: Transport assays (kinetics): cellular uptake of radiolabelled PAH and MTX across BBM and BLM of PKC on filter inserts; type: in vitro ADME, porcine; conditions: for Km: confluent PKC, 30 min incubation, mean ± SEM, n = 3
# Experimental: For transport studies, tightness of the cellular monolayers was inspected microscopically before use. Additionally, radiolabelled substrates were measured in the both chambers (above and below the cell layer) to determine cell layer leakiness. In case of lacking or reduced tightness of the monolayer, very high counts (dpm) were measured in the respective opposite compartment. These resulting counts (dpm) were several-magnitudes greater than those that could have been expected from potential transepithelial transport. Data from cell preparations with such apparent cell layer leakiness were omitted from calculation.
# For kinetic data, raw transport data (dpm) were submitted to intra-assay normalization using the blanks described above and calculated using the following equation:
# meandpm×totalvolume/countedvolume×60sec×specificactivity×proteincontent×assaytime=substratepmol/mg×min
# hMRP4 = conditions: hMRP4, MTX; cited from earlier work
# hOAT4 = conditions: hOAT4, MTX; cited from earlier work
# hOAT1 = conditions: hOAT1, MTX; cited from earlier work
# [4] = tested on: primary porcine kidney cells (PKC); assay: MTT reduction cytotoxicity assay in PKC; conditions: for EC50: read-out: EC50 (cytotoxicity), 1-500 μM, positive control
# Experimental: Cytotoxicity experiments using the MTT reduction assay as previously described, were conducted to estimate non-toxic concentrations for subsequent analyses. All chemicals and stock solutions (Tables 1 and 2) were sterilized by filtration (0.2 μm) prior to testing. […] Absorbance was read at 550 nm using a microplate reader (Infinite M200, Tecan, Crailsheim, Germany).
# Conversely, in the transport induction experiments (prolonged substrate exposure/low concentrations, Table 2) cytotoxicity was determined after 24, 48, 72 and 96 hours of exposure. All assays were performed with the respective vehicle controls (Tables 1 and 2) and cadmium chloride as positive control.
# Cytotoxicity data were calculated as means ± SEM from at least three independent replicate experiments conducted in technical duplicates, followed by a One-way ANOVA with a subsequent Dunnett’s multiple comparison test (P < 0.05).
# [5] = PKC, 50 nM or 1 μM to basolateral compartment, 48 hours, RT-PCR
smiles,measurement,setting,value
CCCN(CCC)S(=O)(=O)c1ccc(C(=O)O)cc1 [probenecid],Inhibitory effect on pOat3-mediated ES transport,pOat3,inhibitory effect
same,Inhibition of pOat1-mediated PAH uptake,pOat1; 1 mM,could be inhibited
same,Inhibition of PAH uptake from either direction (BBM or BLM),PKC [1],did not show any inhibitory effect
O=C1OC(c2ccc(O)c(S(=O)(=O)O)c2)(c2ccc(O)c(S(=O)(=O)O)c2)c2c(Br)c(Br)c(Br)c(Br)c21 [bromosulphophthalein],Stimulatory effect on transporter mRNA expression,Oat1 or Oat3; [5],none of the tested substances showed any stimulatory effect
same,Reduction of PAH BBM uptake,PKC [1],up to 30%
Nc1ccc(C(=O)NCC(=O)O)cc1 [p-aminohippuric acid],Km,"OAT3 (SLC22A8); ref supplement 1, read-out: KM (PAH)",60 to 65 µM
same,Km,"hOAT3; OAT3 (SLC22A8), Human, ref supplement 1, read-out: KM (PAH)",50 to 100 µM
same,Km,"pOat1; OAT1 (SLC22A6), Pig, ref supplement 1, 2, read-out: KM (PAH)",3.7 µM
same,Affinity of the other pOat1 variant,pOat1; one pOat1 splice variant expressed in Xenopus laevis oocytes,did not show any affinity
same,Km,"pOat1; pOat1 variant expressed in Xenopus laevis oocytes, read-out: apparent Km",3.75 ± 1.6 µM
same,Km,"[2]; primary human proximal tubular cells, read-out: BBM Km of PAH uptake",36.6 ± 1.2 µM
same,Km,"[2]; primary human proximal tubular cells, read-out: BLM Km of PAH uptake",57.5 ± 4.1 µM
same,Time to saturation of PAH uptake,"PKC [3]; PKC, 50 μM substrate, Figure 2B",5 to 10 min
same,BBM uptake compared to BLM uptake,"PKC [3]; PKC, PAH uptake, Figure 2A",about 3 times
same,Km,"PKC [3]; basolateral membrane, read-out: Km of PAH uptake across BLM",187 ± 70.2 µM
same,Km,"PKC [3]; brushborder membrane, read-out: Km of PAH uptake across BBM",58.8 ± 12.6 µM
CN(Cc1cnc2nc(N)nc(N)c2n1)c1ccc(C(=O)N[C@@H](CCC(=O)O)C(=O)O)cc1 [methotrexate],Km,"hOAT3; hOAT3, MTX, read-out: Km",10.9 to 21.1 µM
same,Km,"[2]; human kidney cells (HKC), hOAT1-associated, read-out: Km of MTX transport across the BBM",80.4 ± 3.4 µM
same,Km,"[2]; human kidney cells (HKC), hOAT1-associated, read-out: Km of MTX transport across the BLM",28.5 ± 1.1 µM
same,Km,hMRP4,220 to 1300 µM
same,Reduction of PAH BBM uptake,PKC [1],up to 30%
same,Cellular uptake,"PKC [3]; PKC, radiolabelled substrate",negligible
same,Km,hOAT4,17.8 µM
same,Km,hOAT1,554 to 724 µM
C[C@@H]1Cc2c(Cl)cc(C(=O)N[C@@H](Cc3ccccc3)C(=O)O)c(O)c2C(=O)O1 [ochratoxin A],Reduction of PAH BBM uptake,PKC [1],up to 30%
N[C@@H](Cc1cc(I)c(Oc2ccc(O)c(I)c2)c(I)c1)C(=O)O [triiodothyronine],Stimulatory effect on transporter mRNA expression,Oat1 or Oat3; [5],none of the tested substances showed any stimulatory effect
C[C@]12CC[C@H](OS(=O)(=O)O)CC1=CC[C@@H]1[C@@H]2CC[C@]2(C)C(=O)CC[C@@H]12 [dehydroepi-androsteron sulfate],Inhibitory effect on pOat3-mediated ES transport,pOat3,inhibitory effect
same,Stimulatory effect on transporter mRNA expression,Oat1 or Oat3; [5],none of the tested substances showed any stimulatory effect
O=C(O)CCCC(=O)O [glutarate],Inhibitory effect on pOat3-mediated ES transport,pOat3,inhibitory effect
same,Inhibition of pOat1-mediated PAH uptake,pOat1; 0.5 mM,could be inhibited
C[C@]12CC[C@@H]3c4ccc(OS(=O)(=O)O)cc4CC[C@H]3[C@@H]1CCC2=O [estrone sulfate],Km,"pOat3; pOat3 expressed in X. laevis oocytes, read-out: apparent Km",7.8 ± 1.3 µM
same,Km,"OAT3 (SLC22A8); ref supplement 1, read-out: KM (ES)",2.3 to 5.3 µM
same,Km,"hOAT3; hOAT3, ES, read-out: Km",3.1 to 9.5 µM
same,Inhibition of PAH uptake from either direction (BBM or BLM),PKC [1],not able to inhibit PAH uptake
C[C@H](CCC(=O)NCCS(=O)(=O)O)[C@H]1CC[C@H]2[C@@H]3[C@H](O)C[C@@H]4C[C@H](O)CC[C@]4(C)[C@H]3C[C@H](O)[C@]12C [taurocholic acid],Stimulatory effect on transporter mRNA expression,Oat1 or Oat3,none of the tested substances showed any stimulatory effect
same,Significant effects (cytotoxicity of potential transporter inducers),[4],no
[Cl][Cd][Cl] [cadmium chloride],Cytotoxicity on longer exposure,"[4]; PKC, MTT, exposure >48 hours (data not shown)",did not result in further increased cytotoxicity
same,EC50,"[4]; PKC, MTT, 24 hours of exposure",103 µM
same,EC50,"[4]; PKC, MTT, 48 hours of exposure",57.2 µM
